# Assay results published in paper PMC12136037, “Type II kinase inhibitors that target Parkinson’s disease–associated LRRK2” (Science Advances, 2025).
# Target: T1, LRRK2^KW (Homo sapiens, UniProt Q5S007)
# T1 construct: LRRK2 R1847 to E2527; His6-Z-tag (TEV cleavable) (N, cleaved yes); host or cells: Sf9 insect cells (baculovirus)
# T1 sequence (Q5S007 1847-2527): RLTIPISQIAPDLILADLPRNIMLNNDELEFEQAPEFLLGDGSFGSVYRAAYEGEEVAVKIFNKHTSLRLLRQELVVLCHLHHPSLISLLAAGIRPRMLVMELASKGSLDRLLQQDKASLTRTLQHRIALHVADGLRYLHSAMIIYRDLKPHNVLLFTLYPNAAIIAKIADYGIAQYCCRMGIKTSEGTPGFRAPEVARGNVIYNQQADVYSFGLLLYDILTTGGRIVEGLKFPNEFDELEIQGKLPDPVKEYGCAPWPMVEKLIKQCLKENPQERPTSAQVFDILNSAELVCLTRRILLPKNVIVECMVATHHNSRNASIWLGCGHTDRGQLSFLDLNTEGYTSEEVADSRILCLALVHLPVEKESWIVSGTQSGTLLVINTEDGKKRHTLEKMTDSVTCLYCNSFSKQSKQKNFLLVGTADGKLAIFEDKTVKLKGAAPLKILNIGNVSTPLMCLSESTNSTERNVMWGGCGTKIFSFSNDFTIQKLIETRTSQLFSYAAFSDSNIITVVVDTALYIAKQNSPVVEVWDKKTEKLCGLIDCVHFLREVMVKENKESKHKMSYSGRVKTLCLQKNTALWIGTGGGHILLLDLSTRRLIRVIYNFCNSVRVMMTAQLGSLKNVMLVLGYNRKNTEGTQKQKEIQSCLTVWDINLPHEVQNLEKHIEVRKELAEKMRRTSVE
# Assay: DSF thermal stabilization of LRRK2^KW
# Type: binding
# Settings: screen of 31 type-II inhibitors, Table S1
# Method: To characterize binding between small molecules and LRRK2^KW, induced thermal stabilization was measured by DSF according to previously established protocols ([47]). In brief, LRRK2^KW was diluted to 4 μM in 20 mM Hepes (pH 7.4), 150 mM NaCl, 0.5 mM TCEP, 0.5% glycerol, 20 μM GDP, and 2.5 mM MgCl2, and SYPRO Orange was added (1:1000, MilliporeSigma). Inhibitor (10 μM) to be tested was added to a final sample volume of 20 μl per well of a 96-well plate (white, Starlab). […] The fluorescence was plotted against the temperature, and the melting point (Tm) was determined as the minimum of the first derivative relative to the control.
row,Compound,dTm LRRK2(KW) [K]
1,"COc1cc2nccc(Oc3ccc(NC(=O)Nc4cc(C)on4)c(Cl)c3)c2cc1OC [Tivozanib (AV-951), reference compound]",11.5 K
2,"N#CC1(c2ccc(NC(=O)c3cccnc3NCc3ccncc3)cc2)CCCC1 [Apatinib, reference compound]",-1 K
3,"CNC(=O)c1cc(Oc2ccc(NC(=O)Nc3ccc(Cl)c(C(F)(F)F)c3)c(F)c2)ccn1 [Regorafinib, reference compound]",5.5 K
4,"Cc1ccc(NC(=O)c2cccc(C(C)(C)C#N)c2)cc1Nc1ccc2ncn(C)c(=O)c2c1 [AZ 628, reference compound]",-0.5 K
5,"CN1CCN(C2CCN(C(=O)Nc3cc(Oc4ccc(NC(=O)C5(C(=O)Nc6ccc(F)cc6)CC5)c(F)c4)ccn3)CC2)CC1 [Golvatinib, reference compound]",0.5 K
6,"CNC(=O)c1ccccc1Sc1ccc2c(/C=C/c3ccccn3)n[nH]c2c1 [Axitinib, reference compound]",7.5 K
7,"Cc1cn(-c2cc(NC(=O)c3ccc(C)c(Nc4nccc(-c5cccnc5)n4)c3)cc(C(F)(F)F)c2)cn1 [Nilotinib, reference compound]",-2.5 K
8,"CC(C)(C)c1cc(NC(=O)Nc2ccc(-c3cn4c(n3)sc3cc(OCCN5CCOCC5)ccc34)cc2)no1 [Quizartinib, reference compound]",3.5 K
9,"CCOc1ccn(-c2ccc(F)cc2)c(=O)c1C(=O)Nc1ccc(Oc2ccnc(N)c2Cl)c(F)c1 [BMS 777607, reference compound]",6.8 K
10,"FC(F)(F)c1ccc(CNc2ccc(Cc3c[nH]c4ncc(Cl)cc34)cn2)cn1 [Pexidartinib, reference compound]",6.8 K
11,"Cc1ccc(NC(=O)c2ccc(CN3CCN(C)CC3)cc2)cc1Nc1nc(-c2cccnc2)cs1 [Masitinib, reference compound]",0 K
12,"Cc1ccc(NC(=O)c2ccc(CN3CCN(C)CC3)cc2)cc1Nc1nccc(-c2cccnc2)n1 [Imatinib, reference compound]",0 K
13,"Cc1ccc(C(=O)Nc2cccc(C(F)(F)F)c2)cc1Nc1nc(-c2cccnc2)nc2c1cnn2C [NVP-BHG712, reference compound]",-0.5 K
14,"COc1cc2nccc(Oc3ccc(NC(=O)C4(C(=O)Nc5ccc(F)cc5)CC4)cc3)c2cc1OC [Cabozantinib, reference compound]",7.5 K
15,"CC1(C)CNc2cc(NC(=O)c3cccnc3NCc3ccncc3)ccc21 [Motesanib, reference compound]",-0.5 K
16,"Cc1csc(-c2nnc(Nc3ccc(Oc4ncccc4-c4ccnc(N)n4)cc3)c3ccccc23)c1 [AMG 900, reference compound]",4.5 K
17,"Cc1ccc(F)c(NC(=O)Nc2ccc(-c3cccc4[nH]nc(N)c34)cc2)c1 [Linifanib, reference compound]",5.8 K
18,"COC(=O)c1ccc2c(c1)NC(=O)/C2=C(\Nc1ccc(N(C)C(=O)CN2CCN(C)CC2)cc1)c1ccccc1 [Nintedanib, reference compound]",5 K
19,"CCN1CCN(Cc2ccc(NC(=O)c3ccc(C)c(NC(=O)c4cncc(-c5cccs5)c4)c3)cc2C(F)(F)F)CC1 [ALW-II-41-27, reference compound]",-0.5 K

# More lines, now with the values ahead:
row,dTm LRRK2(KW) [K],Compound
1,-1 K,"Cc1ccc(NC(=O)c2cccc(N(C)C)c2)cc1NC(=O)c1ccc(O)cc1 [ZM336372, reference compound]"
2,0 K,"Cc1ccc(-n2nc(C(C)(C)C)cc2NC(=O)Nc2ccc(OCCN3CCOCC3)c3ccccc23)cc1 [BIRB-796, reference compound]"
3,6.5 K,"COc1cc2c(Nc3ccc(NC(=O)c4ccccc4)cc3)ncnc2cc1OCCCN1CCOCC1 [ZM447439, reference compound]"
4,0 K,"O=C(Nc1ccc(OC(F)(F)F)cc1)c1sccc1NCc1ccnc2ccccc12 [OSI-930, reference compound]"
5,11 K,"Cc1ccc(-n2nc(C(C)(C)C)cc2NC(=O)Nc2cc(COc3cccnc3)[nH]n2)cc1 [PF-4618433, reference compound]"
6,3 K,"COc1cc(Oc2ccnc3cc(OC)c(OC)cc23)ccc1NC(=O)NC(C)c1nccs1 (centres unmarked) [KI20227, reference compound]"
7,10 K,"CCN1CCN(Cc2ccc(NC(=O)Nc3ccc(Oc4cc(NC)ncn4)cc3)cc2C(F)(F)F)CC1 [AST-487, reference compound]"
